Measurements taken from patent US8653095B2, “Small molecules with antimalarial activity” (Radix Pharmaceuticals, Inc., priority 2011, dated 2014).
Where “and” joins values, the source holds several entries; their conditions need not be identical. Equal values may be shown once.

Legend:
[1] = tested on: Plasmodium cynomolgi sporozoite; experiment: Causal prophylactic activity in P. cynomolgi sporozoite-challenged Rhesus monkeys; type: in vivo; conditions: PO, 15 mg/kg, 1 daily for 3 days, one value per monkey
Text: Two monkeys were used in each test group. The control animals developed parasitemia in about 10 days after inoculation of about 1×10^6 P. cynomolgi sporozoites harvested from Anopheles dirus. All the monkeys received three treatments, once a day for three consecutive days beginning a day before (−1, 0,+1) the sporozoites challenge. The control monkeys (group 1) received HECT and the experimental animals received testing compound by using 8 Fr., 15-in. long nasogastric tubes.

P. falciparum DD2 = experiment: In vitro blood stage antimalarial efficacy, [3H]hypoxanthine uptake, strain DD2; type: cell-based; conditions: Plasmodium falciparum, read-out: IC50
Method: (§1) In Vitro Blood Stage Antimalarial Efficacy Evaluation. New compounds were tested against a panel of strains of P. falciparum.
(§2) Test compounds were initially dissolved in DMSO and diluted 400 fold in RPMI 1640 culture medium supplemented with 25 mM Hepes, 32 mM NaHCO3 and 10% Albumax I (Gibco, NY). These solutions were subsequently serially diluted two-fold with a Beckman Biomek® 1000 Robot (Fullerton, Calif.) over 11 different concentrations. The parasites were exposed to serial dilutions of each compound for 48 hrs and incubated at 37° C. with 5% O2, 5% CO2 and 90% N2 prior to the addition of [^3H]hypoxanthine. After a further incubation of 18 hrs, parasite DNA was harvested from each microtiter well using Packard Filtermate™ 196 Harvester (Meriden, Conn.) onto glass filters. Uptake of [^3H]hypoxanthine was measured with a Packard TopCount Liquid Scintillation Counter (Packard Instrument Co.).

rodent P. berghei = conditions: for Primary therapeutic index / Secondary therapeutic index: Sprague-Dawley, rat, in vivo, po; for MCureD (minimum curative dose): rodent P. berghei, administered orally
Method: Antimalarial potency was measured by determination of the MCD (minimum clearance dose), a commonly used efficacy measurement. The primary therapeutic indices, which were obtained by using the MCDs as the effective parameters, were calculated. A secondary therapeutic indices measure of antimalarial potency was determined by use of the dose for the MCureD (minimum curative dose).

in vivo = conditions: Sprague-Dawley, rat, po; for MTD at 2 weeks: MTD (maximum tolerated dose)
[2] = tested on: P. falciparum African NF54 strain; experiment: In vivo efficacy in immunocompromised BXN mice infected with P. falciparum NF54; conditions: Plasmodium falciparum, 96 h, oral once daily for 4 days
Text: (§3) Antimalarial efficacy data was obtained by evaluating new compounds in two rodent models: (I) Swiss mice infected with rodent malaria strain P. berghei; (II) Immunocompromised BXN mice infected with either the sensitive P. falciparum African NF54 strain or the multi-drug resistant P. falciparum Thailand T24 strain.

P. falciparum PH3 = experiment: In vitro blood stage antimalarial efficacy, [3H]hypoxanthine uptake, strain PH3; type: cell-based; conditions: Plasmodium falciparum; read-out: IC50
Method: as §1, §2

[3] = tested on: multi-drug resistant P. falciparum Thailand T24 strain; experiment: In vivo efficacy in immunocompromised BXN mice infected with P. falciparum T24; conditions: Plasmodium falciparum, 96 h, oral once daily for 4 days
Text: as §3

P. falciparum V1S = experiment: microbe, parasite or virus in culture; type: cell-based; conditions: Plasmodium falciparum
Method: as §1, §2

[4] = tested on: Liver stage of P. yoelii yoelii; experiment: In vitro liver-stage antimalarial efficacy evaluation; type: cell-based; conditions: Plasmodium yoelii
Method: In Vitro Liver-Stage Antimalarial Efficacy Evaluation. Any new desirable antimalarial drug should be broad spectrum: it should be active against both the blood stage and the liver stage of the parasite. New compounds were assessed on the Plasmodium yoelii liver stage in vitro. The liver stage of P. yoelii is a parasite of rodent extensively used as an experimental model for studying the initial phase of the malaria infection.

P. falciparum TM4 = experiment: In vitro blood stage antimalarial efficacy, [3H]hypoxanthine uptake, strain TM4; type: cell-based; conditions: Plasmodium falciparum; read-out: IC50
Method: as §1, §2

P. falciparum K1 = experiment: In vitro blood stage antimalarial efficacy, [3H]hypoxanthine uptake, strain K1; type: cell-based; conditions: Plasmodium falciparum, read-out: IC50
Method: as §1, §2

[5] = tested on: chloroquine-resistant FVO strain of P. falciparum; experiment: Efficacy against blood stages of P. falciparum in Aotus monkeys; type: in vivo; conditions: oral for 3 days
Method: In Vivo Efficacy Studies in Aotus Monkey Model. The monkeys selected for the study had active infections of the chloroquine-resistant FVO strain of P. falciparum. Once parasitemias reached 5,000/μl (or as deemed appropriate by the attending veterinarian), they were treated orally with Formula B or Formula C at 2, 4, 8, or 16 mg/kg/day for 3 days. For compound Formula B, the dosage needed to cure 50% of animals was 4 mg/kg/day and the dosage needed to cure 100% of animals was 16 mg/kg/day. For compound Formula C, the 50% curative dose was 2 mg/kg/day and the 100% curative dose was 8 mg/kg/day (Table 7).
Malaria-naive Panamanian owl monkeys (Aotus lemurinus lemurinus) were used as hosts for chioroquine-resistant P. falciparum. The chloroquine-resistant Vietnam Smith strain was used in the initial experiments. In subsequent studies, a recrudescent isolate from a Vietnam Smith strain infected Aotus monkey treated with chloroquine was used.
The inoculum size produced a parasitemia of at least 5×10^3/mm^3 by the fifth day postinoculation, at which time treatment was begun. Stock solutions of water-soluble drug were prepared at appropriate concentrations and maintained at 4° C. during the course of treatment. A suspension of water-insoluble drugs was prepared in 0.3% methylcellulose just prior to use. All drugs were administered by gastric intubation in a volume of 7.0 ml, followed by a 7.0-mi rinse with either water or 0.3% methylcellulose. Test drug was given orally for either three or seven consecutive days. In several experiments, the putative resistance modulator was given three times per day (8:00 AM, noon, and 4:00 PM) for three or seven days.
Giemsa-stained blood smears were prepared from all animals and examined daily beginning the day after inoculation until parasitemia was cleared and for at least seven days thereafter. At that time, blood films were examined twice a week up to 100 days after treatment. Thick blood films were considered negative if no parasites were seen after examination for at least five min. Ten or less parasites on a thick blood film were recorded as <10. Parasitemia was enumerated and expressed as number of parasites/mm^3. Treated animals were observed twice a day for signs of drug toxicity, as evidenced by abnormal behavior, anorexia, diarrhea, or vomiting. Necropsies were per formed on all animals that died. In conducting the research described in this report, the investigators adhered to the Guide for the Care and Use of Laboratory Animals, as promulgated by the National Research Council.
The outcome of each infection was compared with untreated controls and monkeys treated with chloroquine. […]

Structure (SMILES) | Parasite patency (days postinoculation) [1] | IC50 (P. falciparum DD2) | Primary therapeutic index (rodent P. berghei) | Secondary therapeutic index (rodent P. berghei) | MCureD (minimum curative dose) (rodent P. berghei) | NOAEL at 2 weeks (in vivo) | MTD at 2 weeks (in vivo) | ED50 [2] | IC50 (P. falciparum PH3) | ED50 [3] | IC50 (P. falciparum V1S) | IC50 [4] | IC50 (P. falciparum TM4) | IC50 (P. falciparum K1) | Dosage needed to cure 50% of animals (50% curative dose) [5] | Dosage needed to cure 100% of animals (100% curative dose) [5]
CC[C@@H](N)[C@H](O)[C@H](O)[C@H](COC)[C@@H]1CC[C@@]23CC24c2nc5ccc(OC)cc5cc2C(=O)N[C@H]4CN13 (some centres unmarked) [Formula B] | 41 days and 55 days | 270 ± 70 pM | 237 | 53 | 14.2 mg/kg | > 100 mg/kg/day | > 500 mg/kg | 0.24 mg/kg | 170 ± 40 pM | 0.27 mg/kg | 260 ± 50 pM | 5800 pM | 230 ± 40 pM | 220 ± 50 pM | 4 mg/kg/day | 16 mg/kg/day
COC[C@@H]([C@@H](O)[C@@H](O)[C@H](N)Cc1ccccc1)[C@@H]1CC[C@@]23CC24c2nc5ccc(OC)cc5cc2C(=O)N[C@H]4CN13 (some centres unmarked) [Formula C] | 48 days and 64 days | 160 ± 30 pM | 290 | 72 | 9.82 mg/kg | > 100 mg/kg/day | > 500 mg/kg | 0.2 mg/kg | 190 ± 40 pM | 0.18 mg/kg | 120 ± 30 pM | 7100 pM | 310 ± 70 pM | 250 ± 40 pM | 2 mg/kg/day | 8 mg/kg/day
